Reference: patent US6844320B1, “Treatment of preeclampsia, toxemia and preterm labor with combination of progestational agent and a nitric oxide synthase substrate and/or donor” (Board of Regents, The University of Texas System, priority 1993, dated 2005)
Entries after “also recorded” stand apart in the source; their conditions may differ. Marks after values point to notes of the source that are not given here.

Key:
[1] = test system: spontaneously contracting uterine strips from rat; assay: Relaxation of spontaneously contracting uterine strips in muscle baths; assay type: cell-based
Method: The tissues were obtained on days 17-22 (d17, d18, d19 and d22) of gestation, on day 22 (d22 del) during spontaeous delivery (1-3 pups delivered), or on 1 (d1pp) and 2 (d2pp) days postpartum. […] Data are analyzed by repeated measures ANOVA on seven groups. […] Each data point represent mean±S.E.M. The total number of strips studied at each time period was 8-16 from 4-6 animals per group.
Each upstroke from baseline represents a contraction.
In the experiments whose results are shown by the graph of FIG. 2, the tissues were obtained on days 17-22 (d17, d18, d19 and d22) of gestation, on day 22 (d22 del) during spontaneous delivery (1-3 pups delivered), or on 1 (d1pp) and 2 (d2pp) days postpartum. […] Each data point represent mean±SEM. The total number of strips studied at each time period was 8-16 from 4-6 animals per group.

[2] = test system: L-NAME-induced "preeclampsia" animals; assay: L-NAME-induced "preeclampsia": blood pressure and fetal weights; assay type: in vivo; settings: for Effect on L-NAME-induced hypertension (blood pressure): 50 mg L-NAME (FIG. 5); for Effect on fetal weights (pup weights): same L-NAME-treated "preeclamptic" animals (FIG. 6)
pregnant rats [3] = assay: L-NAME infusion in pregnant rats: blood pressure; assay type: in vivo, rat
From the text: The data in Table 1 below show the effects of L-NAME infusion on blood pressure (mm Hg) in pregnant rats.

pregnant rats [4] = assay: L-NAME infusion to pregnant rats: delivery and pups delivered; assay type: in vivo
From the text: The data in Table 2 below show the delivery and the pups delivered of L-NAME infusion to pregnant rats.

Compound: CN(C)c1ccc2nc3ccc(=[N+](C)C)cc-3sc2c1 [methylene blue]
- Effect on the relaxation effect of L-arginine (1 mM) ([1]; 0.1 mM, added before the application of L-arginine): abolished
- Effect on the relaxation produced by L-arginine ([1]; (FIG. 1E)): reversed

Compound: N=C(N)NCCC[C@H](N)C(=O)O [L-arginine]
- Duration of complete inhibition of spontaneous uterine contractions ([1]; 0.1 mM to 10 mM, strips from days 17-22 of gestation, delivery, postpartum (FIG. 2)): dose-dependent
- Relaxation of spontaneously contracting tissues ([1]; 1 mM (FIG. 1E), repeatable in the same strip): produced relaxation
- Relaxation of spontaneously contracting uterine strips ([1]; 1-3 mM, rat day 18 of gestation (FIG. 1 A, B, E)): substantial relaxations
- Relaxation effects during spontaneous delivery at term and postpartum, compared to all other times ([1]; from concentrations of 1 mM (FIG. 2)): significantly (P<0.01) decreased
- Effect on L-NAME-induced hypertension (blood pressure) [2]: partially reduced blood pressure
- Effect on fetal weights (pup weights) [2]: slightly but statistically significant, elevated fetal weights

Compound: COC(=O)[C@@H](N)CCCNC(=N)N[N+](=O)[O-] [L-NAME, N^G-nitro-L-arginine methyl ester]
- Effect on the relaxation produced by L-arginine ([1]; 3 mM (FIG. 1B)): reversed
- Blood Pressure (pregnant rats [3]; L-NAME 25 mg/day infusion, gestation Day 15): 119 ± 2^a mm Hg
- Blood Pressure (pregnant rats [3]; L-NAME 25 mg/day infusion, gestation Day 18): 144 ± 4^b mm Hg
- Blood Pressure (pregnant rats [3]; L-NAME 25 mg/day infusion, gestation Day 22): 146 ± 2^b mm Hg
- Blood Pressure (pregnant rats [3]; L-NAME 50 mg/day infusion, gestation Day 15): 123 ± 3^a mm Hg
- Blood Pressure (pregnant rats [3]; L-NAME 50 mg/day infusion, gestation Day 18): 166 ± 2^c mm Hg
- Blood Pressure (pregnant rats [3]; L-NAME 50 mg/day infusion, gestation Day 22): 168 ± 3^c mm Hg
- Day of Delivery (pregnant rats [4]; L-NAME 25 mg/day): 22.4 ± 0.2
- Weight of pups (pregnant rats [4]; L-NAME 25 mg/day): 5.05 ± 0.08^b
- # of dead pups (pregnant rats [4]; L-NAME 25 mg/day, 9 animals): 5
- Day of Delivery (pregnant rats [4]; L-NAME 50 mg/day): 22.7 ± 0.2
- Weight of pups (pregnant rats [4]; L-NAME 50 mg/day): 4.56 ± 0.10^c
- # of dead pups (pregnant rats [4]; L-NAME 50 mg/day, 10 animals): 10

Compound: [N]=O [nitric oxide]
- Relaxation of spontaneously contracting uterine strips ([1]; 0.1 mM, rat day 18 of gestation (FIG. 1D)): substantial relaxations; also recorded: relaxation

Compound: CCC(=O)[C@@]1(C)CC[C@H]2[C@@H]3CCC4=CC(=O)CCC4=C3CC[C@@]21C [R 5020, promegestone]
- Effect on L-NAME-induced hypertension (blood pressure) [2]: partinally reduced
- Effect on fetal weights (pup weights) [2]: slightly but statistically significant, elevated fetal weights
